Experimental data reported in patent publication US20240391923A1, “METHIONINE ADENOSYLTRANSFERASE 2A INHIBITOR FOR TREATING MTAP DELETION-TYPE CANCER” (SUZHOU GENHOUSE BIO CO., LTD., priority 2022, published 2024).
Like-named read-outs stand apart in the source and are kept apart here.

Key:
[1] = tested on: SDMA in human colon cancer cell line HCT116; assay: Cell symmetric dimethylarginine (SDMA) test, In-cell Western, HCT116 (MTAP wild-type); assay type: cell-based; settings: Homo sapiens, HCT-116, 96 h
Method in brief: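 SDMA level, an indirect readout of cellular MAT2A inhibition, measured by In-cell Western as background-subtracted 800/700 nm signal against DRAQ5. Cells exposed 4 days to six 1:4-diluted doses from 6 μM; inhibition relative to DMSO, IC50 from sigmoidal fit.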

[2] = tested on: HCT116-MTAP wild-type (+/+)-cell strain; assay: Tumor cell proliferation inhibition assay (CellTiter-Glo), HCT116-MTAP wild-type (+/+); assay type: cell-based; settings: Homo sapiens, 120 h, HCT116-MTAP wild-type (+/+) cells, 5-day treatment
Method in brief: (§1)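 Seed cells; 24 h later add compound (10 gradients, 1:3, max 10 μM; DMSO ctrl). Incubate 5 d, 37° C./5% CO2. Measure ATP via CellTiter-Glo.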

DOHH-2 cell strain = assay: Tumor cell proliferation inhibition assay (CellTiter-Glo), DOHH-2; assay type: cell-based; settings: Homo sapiens, 120 h, DOHH-2 cells, 5-day treatment
Method in brief: as §1

[3] = Stability test in liver microsomes, rat; assay type: in vitro ADME, Sprague-Dawley rats; settings: Sprague-Dawley; rat liver microsomes 0.5 mg/mL, 1.0 μM substrate, up to 60 min; read-out: Metabolic half-life in rat liver microsome (T½, min)
[4] = Pharmacokinetic test in rats (IV and PO); assay type: in vivo; settings: rat, plasma, SD rats; for half-life: read-out: T½ (converted)
PXR = biological target: T1, PXR (Homo sapiens, UniProt O75469); assay: PXR activation test in stably transfected DPX2 cells; assay type: cell-based; settings: for PXR activation fold (10 μM) / PXR activation fold (30 μM): DPX2 cells, 48 h; for activation activity on PXR at 30 μM (in words): summary of Table 10
T1 construct: host or cells: DPX2 cells
T1 sequence (O75469 1-434): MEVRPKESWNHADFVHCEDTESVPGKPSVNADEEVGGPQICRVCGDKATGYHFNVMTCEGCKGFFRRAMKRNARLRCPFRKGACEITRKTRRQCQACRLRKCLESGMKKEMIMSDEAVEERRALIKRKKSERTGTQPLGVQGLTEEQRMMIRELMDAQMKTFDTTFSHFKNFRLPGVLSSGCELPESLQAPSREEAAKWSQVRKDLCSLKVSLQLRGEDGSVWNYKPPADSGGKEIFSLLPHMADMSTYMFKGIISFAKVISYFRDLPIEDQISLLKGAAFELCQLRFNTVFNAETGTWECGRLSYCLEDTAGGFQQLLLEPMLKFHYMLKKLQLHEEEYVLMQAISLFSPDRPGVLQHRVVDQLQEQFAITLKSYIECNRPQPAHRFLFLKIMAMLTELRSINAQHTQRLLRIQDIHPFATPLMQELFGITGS
Method: In this example, the compound was tested for PXR activation.
100 μL of stably transfected DPX2 cells were seeded per well of a 96-well cell culture plate (4.5×10^5 cells/mL in Puracyp medium), followed by placing the 96-well plate in a 37° C. incubator. After 24 h, the 96-well plate was taken out from the incubator, the medium was replaced with 100 μL of the test compound (at a final concentration of 10 μM and 30 μM), positive control compound rifampicin (at a final concentration of 10 μM), and the DMSO treatment group (at a final concentration of 0.1%), and 3 replicate wells were set. The test plate was placed back into the incubator. After 24 h, the medium was replaced with the freshly prepared test compound and rifampicin solution, and the test plate was again placed back into the incubator. After the compound was treated for 48 h, the test plate was taken out from the incubator. The medium in the wells was discarded, the plate was washed twice with PBS, 50 μL of medium containing 1×CellTiter-Fluor™ Cell Viability Assay reagent was added, and the mixture was incubated at 37° C. for 30 min. The test plate was taken out and equilibrated to room temperature, and the fluorescence signal under the conditions of 400 nm excitation light/505 nm emission light was detected by a microplate reader.
Subsequently, 50 μL of medium containing ONE-Glo Assay reagent was added to each well, and the plate was shaken, mixed well, and incubated at room temperature for 5 min. Chemiluminescence was detected by a microplate reader. The data was analyzed to evaluate the PXR activation of the test compound.

[5] = IC50 score class, read-out: Cell 96 h SDMA Inhibition (HCT116-MTAP+/+) (score)
[6] = read-out: Cell 96 h SDMA inhibition (HCT116-MTAP+/+)
[7] = IC50 score, read-out: Tumor cell 5-day relative growth inhibition (HCT116-MTAP+/+) (nM), score
[8] = IC50 value, read-out: Tumor cell 5-day relative growth inhibition (HCT116-MTAP+/+)
[9] = IC50 score, read-out: Tumor cell 5-day relative growth inhibition (DOHH-2) (nM), score
[10] = IC50 value, read-out: Tumor cell 5-day relative growth inhibition (DOHH-2)

Row | IC50 [1, 5] [nM] | IC50 [1, 6] [nM] | IC50 [2, 7] [nM] | IC50 [2, 8] [nM] | IC50 (DOHH-2 cell strain; [9]) [nM] | IC50 (DOHH-2 cell strain; [10]) [nM] | half-life at 1 μM [3] [min] | AUC ([4]; IV 1 mg/kg) [µM·h] | clearance ([4]; IV 1 mg/kg) [mL/min/kg] | bioavailability ([4]; IV 1 mg/kg, PO 5 mg/kg) [%] | half-life ([4]; IV 1 mg/kg) [h] | AUC ([4]; PO 5 mg/kg) [µM·h] | half-life ([4]; PO 5 mg/kg) [h] | PXR activation fold (10 μM) (PXR) [fold] | PXR activation fold (30 μM) (PXR) [fold] | activation activity on PXR at 30 μM (in words) (PXR) | bioavailability ([4]; IV 1 mg/kg, PO 10 mg/kg) [%] | half-life ([4]; PO 10 mg/kg) [h] | SMILES
1 | < 200 | 99.2 | < 500 | 191 | < 500 | 134 |  |  |  |  |  |  |  |  |  |  |  |  | Cc1ncccc1-n1c(=O)c2nn(C)cc2c2ccc(C(F)(F)F)nc21 (single isomer, unassigned) [Compound B180]
2 | 1000 to 3000 | 1420 | 500 to 2000 | 1650 | 500 to 2000 | 1110 | > 145 | 18.9 | 2.67 | 217 | 3.4 | 223 | 3.7 |  |  |  |  |  | Cn1cc2c(n1)c(=O)n(-c1cccnc1)c1cc(Cl)ccc21 [Compound B12]
3 | 200 to 1000 | 467 | 500 to 2000 | 1000 | < 500 | 39.1 | > 145 |  |  |  |  |  |  | 7.06 | 21.71 |  |  |  | Cn1cc2c(n1)c(=O)n(-c1cccc3[nH]ncc13)c1cc(Cl)ccc21 [Compound B60]
4 | 1000 to 3000 | 1030 |  |  | < 500 | 443 | 142 |  |  |  |  |  |  |  |  |  |  |  | Cn1cc2c(n1)c(=O)n(-c1cccc(O)c1)c1nc(C(F)(F)F)ccc21 [Compound B148]
5 | 1000 to 3000 | 1060 | ≥ 2000 | ≥ 2000 |  |  |  |  |  |  |  |  |  | 7.47 | 34.49 |  |  |  | O=c1c2n[nH]cc2c2ccc(C(F)(F)F)nc2n1-c1cccnc1 [Compound B178]
6 | 200 to 1000 | 480 | 500 to 2000 | 1340 | 500 to 2000 | 1040 | > 145 | 120 | 0.333 | 90 | 6.7 | 541 | 9.5 | 3.63 | 3.77 | very weak |  |  | Cn1cc2c(n1)c(=O)n(-c1cccc3[nH]ncc13)c1nc(C(F)(F)F)ccc21 [Compound B181]
7 | > 3000 | > 3000 | ≥ 2000 | 7340 |  |  | 20.4 |  |  |  |  |  |  |  |  |  |  |  | Cn1cc2c(n1)c(=O)n(-c1ccccc1Cl)c1nc(C(F)(F)F)ccc21 [Compound B182]
8 | 1000 to 3000 | 2160 | 500 to 2000 | 464 |  |  |  | 177 | 0.283 |  | 8.8 |  |  | 3.37 | 7.87 | very weak | 243 | 72.8 | Cn1cc2c(n1)c(=O)n(-c1cccc3[nH]ncc13)c1cc(Cl)c(F)cc21 [Compound B257]
9 | > 3000 | > 10000 | ≥ 2000 | > 10000 |  |  |  |  |  |  |  |  |  |  |  |  |  |  | Cn1cc2c(n1)c(=O)n(-c1cccc3[nH]ncc13)c1cc(Cl)c(C#N)cc21 [Compound B258]
10 | > 3000 | > 10000 | ≥ 2000 | > 10000 |  |  |  | 10.2 | 4.5 |  | 6.7 | 68.9 | 14.7 |  |  |  |  |  | Cn1cc2c(n1)c(=O)n(-c1cccnc1C1CC1)c1cc(Cl)c(F)cc21 [Compound B340]
